According to US20200277571A1, “METHOD FOR AMPLIFYING CONE PHOTORECEPTORS OR ROD PHOTORECEPTORS USING DORSALIZATION SIGNAL TRANSMITTER OR VENTRALIZATION SIGNAL TRANSMITTER” (RIKEN, priority 2017, published 2020):

Tests used:
[1] = system: OTX2-positive and OC2-positive cells in retinal tissue produced from human ES cells; test: Immunostaining for OTX2 and OC2 of retinal tissue, day 70-75, image analysis (Image J); type: cell-based; details: for number of OTX2-positive cells versus Control (NUC) group / OC2-positive cells: 0.15 nM BMP4, 500 nM Cyclopamine-KAAD; for number of OTX2-positive cells versus Control (NUC) group: 100 nM LDN193189, 100 nM SAG from day 22; for OC2-positive cells: 100 nM LDN193189 or 100 nM SAG from day 22, Control (NUC) about 26.4%; for expression level (intensity of immunostained fluorescence) of OC2 as compared to the Control (NUC) group, on average: 0.15 nM BMP4 or 500 nM Cyclopamine-KAAD from day 22
Description: Here, the proportion of the number of OC2-positive cells contained in the neural retinal tissue can be determined by those of ordinary skill in the art by performing conventionally possible immunostaining and the like by using an anti OC2 antibody, DAPI and the like, measuring the number of OC2-positive cells, the number of DAPI-positive cells and the like, and identifying the ratio thereof contained in a neural retinal tissue. The expression level of OC2 protein can be determined by those of ordinary skill in the art by performing conventionally possible immunostaining and the like by using an anti OC2 antibody, DAPI and the like, and analyzing the region stained by an anti OC2 antibody by using image analysis software such as Image J and the like to identify the signal intensity of OC2-positive cells. Alternatively, the proportion of the number of OC2-positive cells contained in a neural retinal tissue and/or the OC2 protein expression level of OC2-positive cell may be identified by analysis using conventional flow cytometry using an antibody against OC2 protein.
A cell aggregate containing a retinal tissue was prepared by the method described in “Kuwahara et al. Nat Commun 2015, 19(6), 6286-” after modification in part. That is, the aforementioned cultured ES cells were individually dispersed using TrypLE Express (Invitrogen), and the individually dispersed human ES cells were suspended in 100 μL of a serum-free medium in a cell non-adhesive 96 well plate (SUMILON spheroid plate, SUMITOMO BAKELITE CO., LTD.) at 9×10^3 cells per well to allow rapid formation of aggregates, after which they were cultured at 37° C., 5% CO2. As the serum-free medium therefor, a serum-free medium obtained by adding 10% KSR, 450 μM 1-monothioglycerol, 1× Chemically defined lipid concentrate, 5 mg/mL BSA, 20 μM Y27632 to a 1:1 mixture of F-12 medium and IMDM medium was used. At 6 days after the start of suspension culture, BMP4 at a final concentration of 1.5 nM was added and suspension culture was continued. A half amount of the culture medium in the well was exchanged with the above-mentioned medium not supplemented with a BMP signal transduction pathway agonist every 3 or 4 days. A cell aggregate containing a retinal tissue at day 18 from the start of suspension culture was cultured in suspension in a serum-free medium (DMEM/F12 medium supplemented with 1% N2 supplement) containing 3 μM CHIR99021 and 5 μM SU5402 for 4 days, namely, up to day 22 from the start of suspension culture. Thereafter, suspension culture of the cell aggregate containing the retinal tissue was continued until it was appropriately used for analysis and the like. As the culture medium during this period, serum-containing media shown in the following to [3] were used and the cell aggregate was cultured under 5% CO2 conditions.
[1] day 22 to day 38 from the start of suspension culture; DMEM/F12 medium supplemented with 10% fetal calf serum, 1% N2 supplement, and 100 μM taurine. day 38 to day 60 from the start of suspension culture; a 1:3 mixed medium of DMEM/F12 medium supplemented with 10% fetal calf serum, 1% N2 supplement, and 100 μM taurine, and Neurobasal medium supplemented with 10% fetal calf serum, 2% B27 supplement, and 100 μM taurine. after day 60 from the start of suspension culture; Neurobasal medium supplemented with 10% fetal calf serum, 2% B27 supplement, and 100 μM taurine.
[1] Control group (FIG. 2a, f, k, p); according to the method described in Example 1, culture was performed up to day 70 or day 75 from the start of suspension culture and without addition. [2]+BMP group (FIG. 2b, g, 1, q); 0.15 nM BMP4 was added from day 22 from the start of suspension culture to completion of suspension culture, and cultured up to day 70 or day 75 from the start of suspension culture. […]

[2] = system: CYP26A1 gene; test: Quantitative PCR of CYP26A1 gene expression in retinal tissue; type: cell-based, human; details: about day 70, 0.15 nM BMP4 or 100 nM LDN193189 from day 22
Description: [1] Control group (FIG. 2a, f, k, p); according to the method described in Example 1, culture was performed up to day 70 or day 75 from the start of suspension culture and without addition. [2]+BMP group (FIG. 2b, g, 1, q); 0.15 nM BMP4 was added from day 22 from the start of suspension culture to completion of suspension culture, and cultured up to day 70 or day 75 from the start of suspension culture. [3]+Cyclopamine-KAAD group (FIG. 2c, h, m, r); 500 nM Cyclopamine-KAAD was added from day 22 from the start of suspension culture to completion of the suspension culture, and cultured up to day 70 or day 75 from the start of suspension culture. [4]+LDN193189 group (FIG. 2d, i, n, s); 100 nM LDN193189 was added from day 22 from the start of suspension culture to completion of the suspension culture, and cultured up to day 70 or day 75 from the start of suspension culture. [5]+SAG group (FIG. 2e, j, o, t); 100 nM SAG was added from day 22 from the start of suspension culture to completion of the suspension culture, and cultured up to day 70 or day 75 from the start of suspension culture.
On the other hand, using cDNA on about day 70 from the start of suspension culture, the expression level of CYP26A1 gene was analyzed. […]

[3] = system: S-opsin, M-opsin, L-opsin; test: Quantitative PCR of S-opsin, M-opsin, L-opsin after maturation culture in serum-free medium; type: cell-based, human; details: BMP4 (0-1.35 nM) added in combination with T3 (0-8 nM) in serum-free DMEM/F12 after about day 190, not less than 30 days
Description: By a method similar to the methods described in Example 1 and Example 3, a cell aggregate containing a retinal tissue in a differentiation stage matured to the level that Muller cell was observed was prepared and culture was performed, in the serum-containing medium used, up to about day 190 to give a retinal tissue in a differentiation stage matured to the level that Muller cell was observed. Thereafter, by a method similar to the methods described in Example 11 and 12, further maturation was performed. That is, 0-1.35 nM BMP4 and 0-8 nM T3 were added to a medium obtained by adding 1% N2 supplement and 100 μM taurine but not adding 10% fetal calf serum to DMEM/F12 medium containing glutamic acid as a component, and culture was performed for not less than 30 days from the start of culture for further maturation. A cell aggregate containing a retinal tissue was recovered, quantitatively PCR was performed according to a conventional method, and the expression levels of S-opsin, M-opsin, L-opsin were confirmed. As a result, irrespective of the presence or absence of BMP4, the expression of S-opsin was promoted when T3 was absent.

[4] = system: photoreceptor precursor and cone photoreceptor precursor in retinal tissue produced from human ES cells; test: Immunostaining for CRX and TRβ2 and CRX::Venus fluorescence observation of retinal tissue, day 70-75 of suspension culture; type: cell-based

Row | Compound | number of OTX2-positive cells versus Control (NUC) group [1] | OC2-positive cells [1] | expression level (intensity of immunostained fluorescence) of OC2 as compared to the Control (NUC) group, on average [1] | expression of CYP26A1 gene [2] | expression of L and M-opsin [3] | CRX::Venus-positive cells as compared with group added with 0.15 nM BMP4 ([4]; 0.45 nM BMP4 from day 22) | CRX::Venus-positive cells as compared with group added with 0.15 nM BMP4 ([4]; 1.35 nM BMP4 from day 22)
1 | CC1=C2C[C@H]3[C@@H](CC=C4CC(=O)CC[C@@]43C)[C@@H]2CC[C@]12O[C@@H]1C[C@H](C)CN(CCNC(=O)CCCCCNC(=O)CCc3ccccc3)[C@H]1[C@H]2C [Cyclopamine-KAAD] | higher | ~16.7% | about 64% | – | – | – | –
2 | BMP4: BMP protein; BMP signal transduction pathway agonist used as dorsalization signal transmitter | higher | about 16.0% | about 36% | promotes | promoted | became less | became less
3 | CNC1CCC(N(Cc2cccc(-c3ccncc3)c2)C(=O)c2sc3ccccc3c2Cl)CC1 (stereo not drawn) [SAG] | lower | ~27.3% | – | – | – | – | –
4 | c1ccc2c(-c3cnn4cc(-c5ccc(N6CCNCC6)cc5)cnc34)ccnc2c1 [LDN193189, 4-[6-(4-piperazin-1-ylphenyl)pyrazolo[1,5-a]pyrimidin-3-yl]quinoline] | lower | ~35.1% | – | suppresses | – | – | –
